According to PMC8121805, “Discovery of first-in-class inhibitors of ASH1L histone methyltransferase with anti-leukemic activity” (Nature Communications, 2021):
pIC50: −log10 of the molar value. Where “and” joins values, the source holds several entries; their conditions need not be identical. Equal values may be shown once.

Experiments:
[1] = target: ASH1L (amino acids 2046–2330) (Homo sapiens, UniProt Q9NR48); assay: Histone methyltransferase (HMT) assay
Description: The mixtures of ASH1L and compounds were incubated at room temperature for 1 h. […] The reaction was continued for 1 h at room temperature, then quenched by addition of 10% Trichloroacetic acid (TCA) and then transferred to 96-well filter plates (Millipore sigma, MSFBN6B), washed twice with 10% TCA and then once with 200-proof ethanol. After extensive drying, 70 µL of Microscint-O scintillant (PerkinElmer) was added and counts per minute (CPM) were measured using a MicroBeta microplate counter (PerkinElmer). Titration curves were plotted using Prism (GraphPad Prism 8.0.0.) and IC50 values were calculated.

K562 cells = assay: Flow cytometry of CD11B expression (differentiation); type: cell-based, human; conditions: for K562 % CD11B+ cells: 7 days
Description: In addition, 1 × 10^5 cells per sample were stained with Zombie Aqua™ dye (1:100 dilution) for 15 min using the Zombie Aqua™ Fixable Viability Kit (Zombie Aqua™ Fixable Viability Kit, Biolegend®) […] and then for 30 min with an anti-CD11B-PE antibody (982606, ICRF44, Biolegend®) or anti-CD11B-Pacific Blue (101224, BD BioLegend) antibody at 1:50 dilution, according to the No-wash Sequential Staining Protocol described by the manufacturer (BioLegend, Zombie Aqua Fixable Viability Kit). Cells were washed twice with 500 µL PBS containing 1% FBS and resuspended in 200 µL PBS with 1% FBS.

NSD3 = NSD3 (Homo sapiens, UniProt Q9BZ95); assay: HMT selectivity panel; conditions: NSD3, 50 µM compound
Description: (§1) mM DTT and 0.01% Triton X-100 was used in experiments containing core histone.

[2] = Effect on normal hematopoiesis: complete blood counts and blood parameters
Description: At the end point of the experiment blood samples were collected, processed and analyzed for complete blood counts (CBC) and to assess populations of myeloid (CD11b + /Gr-1 + ), B- (B220 + /CD19 + ), and T- (CD3 + ) cells using flow cytometry. […] The analysis of CBC and other blood parameters was performed by the ULAM Animal Diagnostic Laboratory using Element HT5 (HESKA).
(a) Analysis of blood cell counts in
blood cells, RBC – red blood cells, NEU – neutrophiles, LYM – lymphocytes. MONO –
monocytes, EOS – eosinophils, BAS - basophils, PLT - platelets) and other blood parameters (Hgb
– Hemoglobin, HCT- Hematocrit, MCV – Mean corpuscular volume, MCH - Mean corpuscular
hemoglobin, MCHC - Mean corpuscular hemoglobin concentration, RDW – Red cell distribution
(1 picture or pasted object on this page, not shown here)

PRMT3 = PRMT3 (Homo sapiens, UniProt O60678); assay: HMT selectivity panel; conditions: PRMT3, 50 µM compound
Description: as §1

EZH2 = EZH2 (Homo sapiens, UniProt Q15910); assay: HMT selectivity panel; conditions: EZH2, 50 µM compound
Description: as §1
experiments containing nucleosome.
G9a 5 core histone 0.05 mg/mL 1
GLP 5 core histone 0.05 mg/mL 1

NSD2 = NSD2 (Homo sapiens, UniProt O96028); assay: HMT selectivity panel; conditions: NSD2, 50 µM compound
Description: as §1

GLP = GLP (Homo sapiens, UniProt Q9H9B1); assay: HMT selectivity panel; conditions: 50 µM compound
Description: as §1
experiments containing nucleosome.
G9a 5 core histone 0.05 mg/mL 1
GLP 5 core histone 0.05 mg/mL 1

MLL4 = assay: HMT selectivity panel; conditions: MLL4, 50 µM compound
Description: as §1

DOT1L = DOT1L (Homo sapiens, UniProt Q8TEK3); assay: HMT selectivity panel; conditions: 50 µM compound
Description: as §1
experiments containing nucleosome.
G9a 5 core histone 0.05 mg/mL 1
GLP 5 core histone 0.05 mg/mL 1

[3] = test system: luciferase-expressing MV4;11 cells in NSG mice; assay: MV4;11 xenotransplantation bioimaging model (bioluminescence); type: in vivo, mouse; conditions: for average radiance: individual mice, 30 mg/kg q.d. i.p.
SUV39H2 = SUV39H2 (Homo sapiens, UniProt Q9H5I1); assay: HMT selectivity panel; conditions: SUV39H2, 50 µM compound
Description: Assay conditions for selectivity experiments with a panel of histone
as §1

MV4;11 cells = assay: RNA-seq global gene expression; type: cell-based, human
Description: Total RNA was prepared from cells collected after 7 days of treatment using RNeasy Mini Kit (74106, Qiagen). 2 µg of total RNA for each sample, as quantified using Nanodrop 2000 UV-Vis spectrophotometer, was submitted to the Next-Generation Sequencing Services of the University of Michigan for RNA Sequencing on the Illumina NovaSeq (S4) Sequencer. ERCC RNA Spike-In Mix (4456740, Invitrogen™) was provided to control for variability in RNA expression.
For analysis of RNA-seq data, Fastq generation was performed using Illumina’s bcl2fastq2 software (v2.17). The cutadapt [https://cutadapt.readthedocs.org/en/stable/] and FastQC [http://www.bioinformatics.babraham.ac.uk/projects/fastqc/] tools wrapped in Trim Galore [http://www.bioinformatics.babraham.ac.uk/projects/trim_galore/] were used to trim low quality bases (Q < 20) and adapter for raw sequences. Reads with length <20 bp were removed after trimming. […] Duplicated reads for pair-end data were removed by SAMtools (v1.5)[41]. Aligned reads were assembled using Cufflinks (v2.2.1) and assembled transcriptome catalog was used as an input for Cuffdiff2[42] to determine gene expression levels (FPKM, Fragments Per Kilobase per Million mapped reads) and differential expression between conditions using default options. Genes with p < 0.05 and fold-change >2 up or down were considered as differentially expressing genes to prepare the Volcano plot, which was generated using the “ggplot2” R package. Gene set analysis was performed and enrichment plots were generated using the “fgsea” package, with the test statistic generated by Cuffdiff2 used to rank genes for gene set enrichment analysis. Fgsea was run using the C2, C5, and C6 curated datasets from MSigDB[44]. Heatmaps for the top 20 ranked genes in the Leading Edge from a given enrichment analysis were generated with the “gplots” package [https://cran.r-project.org/web/packages/gplots/index.html].

[4] = Body weight during treatment in the MV4;11 model
Description: Briefly, the 8- to 10-week old female NSG mice (Jackson Laboratory) were intravenously injected with 5 × 10^6 luciferase-expressing MV4;11 cells (received from Dr. Thomas Look, Dana Farber Cancer Institute). […] For imaging, mice were kept anesthetized with isoflurane, and 50 mg/kg luciferin (E1603, Promega) was administered by intraperitoneal injection. Photonic emission was imaged using the in Vivo Imaging System BLI (IVIS, 200) with total imaging time of 10 s for each mouse.
Measurements are reference to the values obtained at the first day of treatment, which were set as

[5] = Fig S12a, individual mice, AS-99 group
[6] = RNA-seq, MV4;11, 3 µM, seven days

Chain of GLP (Q9H9B1 whole entry): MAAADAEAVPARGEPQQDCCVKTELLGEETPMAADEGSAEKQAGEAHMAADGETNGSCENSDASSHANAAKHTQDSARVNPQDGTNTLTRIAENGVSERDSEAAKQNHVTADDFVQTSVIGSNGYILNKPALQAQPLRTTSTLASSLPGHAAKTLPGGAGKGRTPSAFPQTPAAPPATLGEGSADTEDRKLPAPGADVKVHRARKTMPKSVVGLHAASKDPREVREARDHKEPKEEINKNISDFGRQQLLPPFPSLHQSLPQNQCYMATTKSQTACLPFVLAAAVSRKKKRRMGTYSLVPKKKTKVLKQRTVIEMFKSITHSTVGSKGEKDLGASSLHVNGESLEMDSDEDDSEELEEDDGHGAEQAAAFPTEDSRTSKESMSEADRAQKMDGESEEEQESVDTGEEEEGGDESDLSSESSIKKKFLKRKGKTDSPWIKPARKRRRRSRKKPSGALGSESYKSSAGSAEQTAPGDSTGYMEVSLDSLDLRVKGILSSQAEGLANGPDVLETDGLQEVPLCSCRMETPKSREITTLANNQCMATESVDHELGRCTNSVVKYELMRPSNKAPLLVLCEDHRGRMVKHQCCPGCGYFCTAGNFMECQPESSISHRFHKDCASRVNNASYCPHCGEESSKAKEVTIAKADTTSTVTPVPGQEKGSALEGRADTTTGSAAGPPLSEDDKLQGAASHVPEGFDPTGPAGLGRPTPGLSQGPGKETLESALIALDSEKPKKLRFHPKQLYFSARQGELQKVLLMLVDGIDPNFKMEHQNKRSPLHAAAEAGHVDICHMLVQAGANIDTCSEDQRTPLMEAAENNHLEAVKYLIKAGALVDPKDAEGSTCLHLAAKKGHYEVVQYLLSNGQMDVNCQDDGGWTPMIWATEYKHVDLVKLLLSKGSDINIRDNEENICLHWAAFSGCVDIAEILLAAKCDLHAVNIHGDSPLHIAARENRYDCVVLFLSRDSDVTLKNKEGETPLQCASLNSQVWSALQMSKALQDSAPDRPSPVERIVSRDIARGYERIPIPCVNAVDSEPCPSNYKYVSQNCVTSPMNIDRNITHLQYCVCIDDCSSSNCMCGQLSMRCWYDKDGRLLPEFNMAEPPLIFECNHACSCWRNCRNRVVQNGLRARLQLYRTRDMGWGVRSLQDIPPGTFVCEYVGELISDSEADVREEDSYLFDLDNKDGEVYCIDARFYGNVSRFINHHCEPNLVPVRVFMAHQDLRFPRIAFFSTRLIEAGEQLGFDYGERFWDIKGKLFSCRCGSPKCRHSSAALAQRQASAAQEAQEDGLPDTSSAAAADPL
Chain of DOT1L (Q8TEK3 whole entry, species assumed): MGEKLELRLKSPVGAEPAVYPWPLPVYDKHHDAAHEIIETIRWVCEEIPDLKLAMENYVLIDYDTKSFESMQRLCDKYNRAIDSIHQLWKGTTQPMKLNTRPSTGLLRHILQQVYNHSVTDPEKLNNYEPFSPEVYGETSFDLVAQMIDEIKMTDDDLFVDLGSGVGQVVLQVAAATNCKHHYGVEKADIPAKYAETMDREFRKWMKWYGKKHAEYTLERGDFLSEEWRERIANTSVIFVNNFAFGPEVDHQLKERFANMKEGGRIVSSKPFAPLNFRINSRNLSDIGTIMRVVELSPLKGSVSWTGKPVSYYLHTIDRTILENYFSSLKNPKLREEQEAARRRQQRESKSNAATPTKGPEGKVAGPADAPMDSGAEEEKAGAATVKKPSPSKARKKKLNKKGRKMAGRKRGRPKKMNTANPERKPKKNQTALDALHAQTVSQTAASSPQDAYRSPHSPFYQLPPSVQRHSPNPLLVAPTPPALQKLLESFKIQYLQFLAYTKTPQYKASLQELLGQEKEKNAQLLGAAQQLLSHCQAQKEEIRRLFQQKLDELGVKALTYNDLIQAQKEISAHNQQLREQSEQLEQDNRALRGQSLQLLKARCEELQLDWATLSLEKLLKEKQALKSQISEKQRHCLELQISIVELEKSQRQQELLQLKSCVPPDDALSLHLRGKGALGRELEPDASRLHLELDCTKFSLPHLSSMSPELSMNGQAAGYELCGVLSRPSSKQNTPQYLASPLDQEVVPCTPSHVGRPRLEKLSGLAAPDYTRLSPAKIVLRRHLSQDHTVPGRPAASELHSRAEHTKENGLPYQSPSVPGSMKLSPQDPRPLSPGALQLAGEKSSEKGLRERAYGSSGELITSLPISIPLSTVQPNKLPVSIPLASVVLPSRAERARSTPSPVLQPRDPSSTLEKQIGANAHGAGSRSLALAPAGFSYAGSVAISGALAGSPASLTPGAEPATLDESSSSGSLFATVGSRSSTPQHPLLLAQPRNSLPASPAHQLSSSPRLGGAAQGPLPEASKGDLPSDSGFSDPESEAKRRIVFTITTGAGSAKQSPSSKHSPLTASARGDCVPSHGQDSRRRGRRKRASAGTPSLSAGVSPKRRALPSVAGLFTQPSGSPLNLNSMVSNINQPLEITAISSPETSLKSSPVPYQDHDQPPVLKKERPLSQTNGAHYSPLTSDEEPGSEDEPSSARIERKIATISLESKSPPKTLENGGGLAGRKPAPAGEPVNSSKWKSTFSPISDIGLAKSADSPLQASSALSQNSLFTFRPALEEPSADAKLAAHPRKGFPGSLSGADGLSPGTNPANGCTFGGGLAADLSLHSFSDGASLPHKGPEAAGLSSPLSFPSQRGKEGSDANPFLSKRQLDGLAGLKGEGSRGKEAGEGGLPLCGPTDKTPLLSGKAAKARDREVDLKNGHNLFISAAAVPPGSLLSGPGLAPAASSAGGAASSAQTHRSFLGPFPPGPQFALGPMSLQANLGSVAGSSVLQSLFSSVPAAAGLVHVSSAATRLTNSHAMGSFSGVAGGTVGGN
Chain of NSD2 (O96028 whole entry, species assumed): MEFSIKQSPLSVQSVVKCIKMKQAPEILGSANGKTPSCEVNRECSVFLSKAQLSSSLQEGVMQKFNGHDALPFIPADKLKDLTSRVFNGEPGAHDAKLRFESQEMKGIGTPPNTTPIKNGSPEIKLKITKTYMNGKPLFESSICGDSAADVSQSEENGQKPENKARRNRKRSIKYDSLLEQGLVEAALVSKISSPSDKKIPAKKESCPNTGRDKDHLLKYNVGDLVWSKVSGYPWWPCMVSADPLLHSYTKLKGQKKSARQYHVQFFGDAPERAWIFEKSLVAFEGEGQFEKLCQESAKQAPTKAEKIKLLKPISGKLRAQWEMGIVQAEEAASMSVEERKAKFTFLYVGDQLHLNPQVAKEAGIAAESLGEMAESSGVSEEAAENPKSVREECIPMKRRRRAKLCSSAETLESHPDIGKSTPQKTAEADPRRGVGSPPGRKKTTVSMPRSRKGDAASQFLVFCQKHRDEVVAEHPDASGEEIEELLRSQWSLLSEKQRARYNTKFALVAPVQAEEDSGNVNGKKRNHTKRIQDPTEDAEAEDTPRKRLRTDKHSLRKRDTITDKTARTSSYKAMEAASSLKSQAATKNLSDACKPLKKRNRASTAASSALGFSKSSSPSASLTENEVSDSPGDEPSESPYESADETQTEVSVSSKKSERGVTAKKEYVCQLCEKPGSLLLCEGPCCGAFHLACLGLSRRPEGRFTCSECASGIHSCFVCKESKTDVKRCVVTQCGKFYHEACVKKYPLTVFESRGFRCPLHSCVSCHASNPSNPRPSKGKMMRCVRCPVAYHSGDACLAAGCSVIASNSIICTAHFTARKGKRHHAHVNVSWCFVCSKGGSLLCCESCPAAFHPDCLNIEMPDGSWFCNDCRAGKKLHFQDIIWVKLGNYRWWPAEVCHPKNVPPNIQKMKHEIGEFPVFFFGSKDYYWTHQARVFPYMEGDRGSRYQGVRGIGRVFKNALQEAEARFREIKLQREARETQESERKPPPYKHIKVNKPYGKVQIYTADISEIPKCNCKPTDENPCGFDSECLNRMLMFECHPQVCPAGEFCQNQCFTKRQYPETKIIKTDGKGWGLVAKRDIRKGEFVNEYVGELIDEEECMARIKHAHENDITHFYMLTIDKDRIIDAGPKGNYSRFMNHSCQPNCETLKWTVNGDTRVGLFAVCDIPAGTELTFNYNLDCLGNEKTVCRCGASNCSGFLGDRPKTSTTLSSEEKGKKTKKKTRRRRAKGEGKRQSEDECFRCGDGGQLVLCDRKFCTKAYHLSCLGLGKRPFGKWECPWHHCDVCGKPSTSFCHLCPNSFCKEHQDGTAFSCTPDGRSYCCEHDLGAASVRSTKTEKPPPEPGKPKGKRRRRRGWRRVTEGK
Chain of PRMT3 (O60678 whole entry, species assumed): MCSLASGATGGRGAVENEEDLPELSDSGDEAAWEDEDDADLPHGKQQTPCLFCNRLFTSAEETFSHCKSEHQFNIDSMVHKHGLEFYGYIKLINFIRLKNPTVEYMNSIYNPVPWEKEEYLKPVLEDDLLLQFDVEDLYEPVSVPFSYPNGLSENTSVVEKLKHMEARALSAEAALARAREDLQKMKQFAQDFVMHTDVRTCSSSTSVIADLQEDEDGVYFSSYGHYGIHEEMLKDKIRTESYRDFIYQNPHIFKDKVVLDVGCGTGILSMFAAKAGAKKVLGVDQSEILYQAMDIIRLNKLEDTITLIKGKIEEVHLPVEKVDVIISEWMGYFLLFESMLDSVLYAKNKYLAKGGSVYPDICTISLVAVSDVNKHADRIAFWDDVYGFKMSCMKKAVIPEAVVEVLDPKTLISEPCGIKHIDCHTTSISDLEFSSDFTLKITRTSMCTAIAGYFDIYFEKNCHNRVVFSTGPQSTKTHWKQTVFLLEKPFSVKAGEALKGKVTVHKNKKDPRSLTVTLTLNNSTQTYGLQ

Structure (SMILES): CN1CC(C(=O)NCc2ccc3c(-c4cccc(C(N)=O)c4)cn(C4CCN(S(=O)(=O)C(F)(F)F)CC4)c3c2)C1 [AS-nc]
- reduced inhibitory activity (thioamide of AS-99 replaced with amide) [1]: ~ 100 fold
- pIC50 ([1]; IC50, HMT assay with nucleosomes as substrate, mean ± s.d. from two independent experiments): 4.14
- % Ash1L activity ([1]; Log[compound] (M) -3): 8.534% and 3.267%
- % Ash1L activity ([1]; Log[compound] (M) -3.47712): 48.6163% and 37.7254%
- % Ash1L activity ([1]; Log[compound] (M) -3.95424): 56.4006% and 63.2923%
- % Ash1L activity ([1]; Log[compound] (M) -4.43136): 67.1309% and 48.4913%
- % Ash1L activity ([1]; Log[compound] (M) -4.90849): 72.7906% and 62.8102%
- % Ash1L activity ([1]; Log[compound] (M) -5.38561): 70.7731% and 79.0573%
- % Ash1L activity ([1]; Log[compound] (M) -5.86273): 90.948% and 119.086%

Structure (SMILES): CN1CC(C(=O)NCc2ccc3c(-c4cccc(C(N)=S)c4)cn(C4CCN(S(=O)(=O)C(F)(F)F)CC4)c3c2)C1 [AS-99]
- K562 % CD11B+ cells (K562 cells; 2 uM): 0.43% and 0.58% and 0.36%
- K562 % CD11B+ cells (K562 cells; 4 uM): 0.34% and 0.52% and 0.4%
- K562 % CD11B+ cells (K562 cells; 6 uM): 0.56% and 0.39% and 0.38%
- K562 % CD11B+ cells (K562 cells; 8 uM): 0.73% and 0.97% and 0.76%
- differentiation effects in K562 (K562 cells; control leukemia cell line): not observed
- activity at 50 µM (NSD3): 145%
- % activity (NSD3; 50 µM): 128.837%
- BAS [2, 5]: 0.02 x 103/uL (2×) and 0.03 x 103/uL (4×) and 0.01 x 103/uL (2×) and 0 x 103/uL
- EOS [2, 5]: 270 µL⁻¹ and 470 µL⁻¹ and 320 µL⁻¹ and 390 µL⁻¹ and 650 µL⁻¹ and 300 µL⁻¹ and 100 µL⁻¹ and 450 µL⁻¹ and 360 µL⁻¹
- HCT [2, 5]: 41.9% and 39.7% and 28.7% and 46% and 40.3% and 29.4% and 10.7% and 42.8% and 41.4%
- HGB [2, 5]: 13.7 g/dL and 13.1 g/dL and 9.8 g/dL and 15.6 g/dL and 13.9 g/dL and 10.1 g/dL and 3.6 g/dL and 14.6 g/dL and 14 g/dL
- LYM [2, 5]: 4070 µL⁻¹ and 5890 µL⁻¹ and 4140 µL⁻¹ and 5390 µL⁻¹ and 6000 µL⁻¹ and 3920 µL⁻¹ and 1230 µL⁻¹ and 6280 µL⁻¹ and 5970 µL⁻¹
- MCH [2, 5]: 14.8 Pg and 15 Pg (2×) and 15.6 Pg (3×) and 14.9 Pg and 15.4 Pg and 16.2 Pg
- MCHC [2, 5]: 32.8 g/dL and 33.1 g/dL and 34.1 g/dL (2×) and 33.9 g/dL and 34.4 g/dL (2×) and 34 g/dL and 33.8 g/dL
- MCV [2, 5]: 45.2 fL (3×) and 45.4 fL and 45.8 fL and 44 fL and 43.6 fL and 45.7 fL and 48 fL
- MONO [2, 5]: 0.17 x 103/uL and 0.23 x 103/uL (2×) and 0.12 x 103/uL and 0.28 x 103/uL (2×) and 0.11 x 103/uL and 0.05 x 103/uL and 0.2 x 103/uL
- MPV [2, 5]: 5 fL (2×) and 5.5 fL and 5.9 fL and 5.1 fL and 5.4 fL (2×) and 5.6 fL and 4.8 fL
- NEU [2, 5]: 970 µL⁻¹ and 1680 µL⁻¹ and 1330 µL⁻¹ and 2070 µL⁻¹ and 1910 µL⁻¹ and 1210 µL⁻¹ and 630 µL⁻¹ and 1870 µL⁻¹ and 1770 µL⁻¹
- PLT [2, 5]: 1548 K/uL and 1435 K/uL and 1241 K/uL and 1545 K/uL and 1340 K/uL and 938 K/uL and 317 K/uL and 1303 K/uL and 1383 K/uL
- RBC [2, 5]: 9.27 M/uL and 8.74 M/uL and 6.26 M/uL and 10.46 M/uL and 9.24 M/uL and 6.5 M/uL and 2.36 M/uL and 9.37 M/uL and 8.63 M/uL
- RDW [2, 5]: 14.4% and 15.6% and 15.4% and 13.5% and 14.9% and 13.9% and 14.7% and 14.8% and 18.3%
- WBC [2, 5]: 5.5 k/uL and 8.3 k/uL and 5.92 k/uL and 8.1 k/uL and 8.87 k/uL and 5.55 k/uL and 2.01 k/uL and 8.91 k/uL and 8.33 k/uL
- blood counts and other blood parameters versus vehicle ([2]; normal mice, 30 mg/kg, i.p., q.d., 14 days): no significant difference
- activity at 50 µM (PRMT3): 106%
- % activity (PRMT3; 50 µM): 114.852%
- activity at 50 µM (EZH2): 101%
- % activity (EZH2; 50 µM): 119.029%
- activity at 50 µM (NSD2): 92.1%
- % activity (NSD2; 50 µM): 101.756%
- activity at 50 µM (GLP): 101%
- % activity (GLP; 50 µM): 119.954%
- % activity (MLL4): 79.3828% and 71.6922%
- activity at 50 µM (DOT1L): 107%
- % activity (DOT1L; 50 µM): 93.8212%
- reduction in the bioluminescence signal versus vehicle ([3]; 30 mg/kg, i.p., q.d., 14 days): 65%
- average radiance ([3]; day 6 after transplantation (start of treatment)): 6110 p/s/cm2/sr and 4700 p/s/cm2/sr and 4630 p/s/cm2/sr and 3760 p/s/cm2/sr and 10800 p/s/cm2/sr and 52500 p/s/cm2/sr and 8750 p/s/cm2/sr
- average radiance ([3]; day 13 after transplantation): 199000 p/s/cm2/sr and 275000 p/s/cm2/sr and 78900 p/s/cm2/sr and 62500 p/s/cm2/sr and 231000 p/s/cm2/sr and 5680 p/s/cm2/sr and 144000 p/s/cm2/sr
- average radiance ([3]; day 19 after transplantation (last day of treatment)): 1090000 p/s/cm2/sr (2×) and 1280000 p/s/cm2/sr and 524000 p/s/cm2/sr and 386000 p/s/cm2/sr and 8110 p/s/cm2/sr and 9660 p/s/cm2/sr
- activity at 50 µM (SUV39H2): 88.7%
- % activity (SUV39H2; 50 µM): 78.6146%
- GSEA: transcriptional programs driven by MLL fusion proteins and HOXA9 (MV4;11 cells; MV4;11): downregulation of transcriptional programs driven by MLL fusion proteins and HOXA9
- number of downregulated genes (MV4;11 cells; [6]): 323
- number of up-regulated genes (MV4;11 cells; [6]): 75
- toxicity during the treatment period ([4]; 30 mg/kg, i.p., q.d., 14 days): No substantial toxicity
- body weight reduction ([4]; after 7 days of treatment, 30 mg/kg, i.p., q.d.): ~ 10%
- normalized body weight change ([4]; days of treatment 1): 100
- normalized body weight change ([4]; days of treatment 2): 95 and 98 and 97 and 96
- normalized body weight change ([4]; days of treatment 3): 94 and 98 and 96 and 99 and 95 and 102
- normalized body weight change ([4]; days of treatment 4): 95 and 96 and 97 and 100
- normalized body weight change ([4]; days of treatment 5): 95 and 89 and 93 and 87 and 100
- normalized body weight change ([4]; days of treatment 6): 90 and 100 and 94 and 87 and 93
- normalized body weight change ([4]; days of treatment 7): 85 and 89 and 87 and 94
- normalized body weight change ([4]; days of treatment 9): 91 and 93 and 95 and 87 and 90
- normalized body weight change ([4]; days of treatment 10): 91 and 98 and 96 and 89 and 95 and 87
- normalized body weight change ([4]; days of treatment 11): 91 and 96 and 94 and 97 and 100 and 99 and 89
- normalized body weight change ([4]; days of treatment 12): 95 and 103 and 87 and 88
- normalized body weight change ([4]; days of treatment 13): 89 and 95 and 94 and 96 and 105 and 90
